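Briefly, cells in 96-well plates were exposed to five compound concentrations for 48 h, and endpoints were estimated by linear interpolation. Here, GI50 denotes the concentration required for 50% inhibition of growth. Definition used: TGI = concentration required for complete inhibition of growth.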
Columns and labels:
Test in all cases: NCI-60 cell line screen, 48 h
786-0 renal = tested on: 786-0 renal
A498 renal = tested on: A498 renal
A549 NSCLC = tested on: A549 NSCLC
ACHN renal = tested on: ACHN renal
BT-549 breast = tested on: BT-549 breast
CAKI-1 renal = tested on: CAKI-1 renal
CCRF-CEM leukemia = tested on: CCRF-CEM leukemia
COLO 205 colon = tested on: COLO 205 colon
DU-145 prostate = tested on: DU-145 prostate
EKVX NSCLC = tested on: EKVX NSCLC
HCC-2998 colon = tested on: HCC-2998 colon
HCT-116 colon = tested on: HCT-116 colon
HCT-15 colon = tested on: HCT-15 colon
HL-60(TB) leukemia = tested on: HL-60(TB) leukemia
HOP-62 NSCLC = tested on: HOP-62 NSCLC
HOP-92 NSCLC = tested on: HOP-92 NSCLC
HS 578T breast = tested on: HS 578T breast
HT29 colon = tested on: HT29 colon
IGROV1 ovarian = tested on: IGROV1 ovarian
K-562 leukemia = tested on: K-562 leukemia
KM12 colon = tested on: KM12 colon
LOX IMVI melanoma = tested on: LOX IMVI melanoma
M14 melanoma = tested on: M14 melanoma
MALME-3M melanoma = tested on: MALME-3M melanoma
MCF7 breast = tested on: MCF7 breast
MDA-MB-231 breast = tested on: MDA-MB-231 breast
MDA-MB-435 = tested on: MDA-MB-435
MOLT-4 leukemia = tested on: MOLT-4 leukemia
NCI-H226 lung = tested on: NCI-H226 lung
NCI-H23 lung = tested on: NCI-H23 lung
NCI-H460 lung = tested on: NCI-H460 lung
NCI-H522 lung = tested on: NCI-H522 lung
NCI/ADR-RES ovarian = tested on: NCI/ADR-RES ovarian
OVCAR-3 ovarian = tested on: OVCAR-3 ovarian
OVCAR-4 ovarian = tested on: OVCAR-4 ovarian
OVCAR-5 ovarian = tested on: OVCAR-5 ovarian
OVCAR-8 ovarian = tested on: OVCAR-8 ovarian
PC-3 prostate = tested on: PC-3 prostate
RPMI-8226 leukemia = tested on: RPMI-8226 leukemia
RXF 393 renal = tested on: RXF 393 renal
SF-268 CNS = tested on: SF-268 CNS
SF-295 CNS = tested on: SF-295 CNS
SF-539 CNS = tested on: SF-539 CNS
SK-MEL-2 melanoma = tested on: SK-MEL-2 melanoma
SK-MEL-28 melanoma = tested on: SK-MEL-28 melanoma
SK-MEL-5 melanoma = tested on: SK-MEL-5 melanoma
SK-OV-3 ovarian = tested on: SK-OV-3 ovarian
SN12C renal = tested on: SN12C renal
SNB-19 CNS = tested on: SNB-19 CNS
SNB-75 CNS = tested on: SNB-75 CNS
SR leukemia = tested on: SR leukemia
SW-620 colon = tested on: SW-620 colon
T-47D breast = tested on: T-47D breast
TK-10 renal = tested on: TK-10 renal
U251 CNS = tested on: U251 CNS
UACC-257 melanoma = tested on: UACC-257 melanoma
UACC-62 melanoma = tested on: UACC-62 melanoma
UO-31 renal = tested on: UO-31 renal

Cc1[nH]c(C(=O)Nc2ccccc2OC2CCNCC2)c(Cl)c1Cl
GI50 (786-0 renal): 817 nM | TGI (786-0 renal): 1570 nM | GI50 (A498 renal): 2710 nM | TGI (A498 renal): 9470 nM | GI50 (A549 NSCLC): 1220 nM | TGI (A549 NSCLC): 3350 nM | GI50 (ACHN renal): 995 nM | TGI (ACHN renal): 2050 nM | GI50 (BT-549 breast): 895 nM | TGI (BT-549 breast): 1700 nM | GI50 (CAKI-1 renal): 781 nM | TGI (CAKI-1 renal): 2110 nM | GI50 (CCRF-CEM leukemia): 1370 nM | TGI (CCRF-CEM leukemia): 3890 nM | GI50 (COLO 205 colon): 856 nM | TGI (COLO 205 colon): 1630 nM | GI50 (DU-145 prostate): 1050 nM | TGI (DU-145 prostate): 2040 nM | GI50 (EKVX NSCLC): 1090 nM | TGI (EKVX NSCLC): 3860 nM | GI50 (HCC-2998 colon): 1270 nM | TGI (HCC-2998 colon): 3480 nM | GI50 (HCT-116 colon): 837 nM | TGI (HCT-116 colon): 1590 nM | GI50 (HCT-15 colon): 912 nM | TGI (HCT-15 colon): 1880 nM | GI50 (HL-60(TB) leukemia): 1050 nM | TGI (HL-60(TB) leukemia): 2260 nM | GI50 (HOP-62 NSCLC): 812 nM | TGI (HOP-62 NSCLC): 1630 nM | GI50 (HOP-92 NSCLC): 702 nM | TGI (HOP-92 NSCLC): 1790 nM | GI50 (HS 578T breast): 898 nM | TGI (HS 578T breast): 1900 nM | GI50 (HT29 colon): 875 nM | TGI (HT29 colon): 1710 nM | GI50 (IGROV1 ovarian): 856 nM | TGI (IGROV1 ovarian): 1730 nM | GI50 (K-562 leukemia): 1660 nM | TGI (K-562 leukemia): 5260 nM | GI50 (KM12 colon): 1280 nM | TGI (KM12 colon): 3160 nM | GI50 (LOX IMVI melanoma): 882 nM | TGI (LOX IMVI melanoma): 1610 nM | GI50 (M14 melanoma): 950 nM | TGI (M14 melanoma): 1900 nM | GI50 (MALME-3M melanoma): 809 nM | TGI (MALME-3M melanoma): 1550 nM | GI50 (MCF7 breast): 882 nM | TGI (MCF7 breast): 1680 nM | GI50 (MDA-MB-231 breast): 895 nM | TGI (MDA-MB-231 breast): 1760 nM | GI50 (MDA-MB-435): 883 nM | TGI (MDA-MB-435): 1620 nM | GI50 (MOLT-4 leukemia): 1310 nM | TGI (MOLT-4 leukemia): 3730 nM | GI50 (NCI-H226 lung): 966 nM | TGI (NCI-H226 lung): 1960 nM | GI50 (NCI-H23 lung): 1520 nM | TGI (NCI-H23 lung): 5640 nM | GI50 (NCI-H460 lung): 984 nM | TGI (NCI-H460 lung): 1930 nM | GI50 (NCI-H522 lung): 866 nM | TGI (NCI-H522 lung): 1740 nM | GI50 (NCI/ADR-RES ovarian): 1270 nM | TGI (NCI/ADR-RES ovarian): 3570 nM | GI50 (OVCAR-3 ovarian): 931 nM | TGI (OVCAR-3 ovarian): 1680 nM | GI50 (OVCAR-4 ovarian): 901 nM | TGI (OVCAR-4 ovarian): 1690 nM | GI50 (OVCAR-5 ovarian): 1280 nM | TGI (OVCAR-5 ovarian): 4320 nM | GI50 (OVCAR-8 ovarian): 1070 nM | TGI (OVCAR-8 ovarian): 2400 nM | GI50 (PC-3 prostate): 1390 nM | TGI (PC-3 prostate): 5230 nM | GI50 (RPMI-8226 leukemia): 1040 nM | TGI (RPMI-8226 leukemia): 2590 nM | GI50 (RXF 393 renal): 816 nM | TGI (RXF 393 renal): 1560 nM | GI50 (SF-268 CNS): 760 nM | TGI (SF-268 CNS): 1650 nM | GI50 (SF-295 CNS): 917 nM | TGI (SF-295 CNS): 1680 nM | GI50 (SF-539 CNS): 856 nM | TGI (SF-539 CNS): 1560 nM | GI50 (SK-MEL-2 melanoma): 932 nM | TGI (SK-MEL-2 melanoma): 1910 nM | GI50 (SK-MEL-28 melanoma): 1010 nM | TGI (SK-MEL-28 melanoma): 1970 nM | GI50 (SK-MEL-5 melanoma): 880 nM | TGI (SK-MEL-5 melanoma): 1590 nM | GI50 (SK-OV-3 ovarian): 8460 nM | TGI (SK-OV-3 ovarian): 16100 nM | GI50 (SN12C renal): 860 nM | TGI (SN12C renal): 1590 nM | GI50 (SNB-19 CNS): 1250 nM | TGI (SNB-19 CNS): 3440 nM | GI50 (SNB-75 CNS): 560 nM | TGI (SNB-75 CNS): 1190 nM | GI50 (SR leukemia): 1460 nM | TGI (SR leukemia): 5690 nM | GI50 (SW-620 colon): 990 nM | TGI (SW-620 colon): 2390 nM | GI50 (T-47D breast): 987 nM | TGI (T-47D breast): 2090 nM | GI50 (TK-10 renal): 841 nM | TGI (TK-10 renal): 1620 nM | GI50 (U251 CNS): 849 nM | TGI (U251 CNS): 1610 nM | GI50 (UACC-257 melanoma): 1040 nM | TGI (UACC-257 melanoma): 2120 nM | GI50 (UACC-62 melanoma): 895 nM | TGI (UACC-62 melanoma): 1600 nM | GI50 (UO-31 renal): 656 nM | TGI (UO-31 renal): 1320 nM

— PubChem BioAssay (NCI)
